The values that follow come from US10314312B2, “Synergistic antimicrobial composition of zinc pyrithione” (Jubilant Life Sciences Limited, priority 2014, dated 2019).

For series [1], the system named is Malassezia furfur (ATCC No. 14521). In words: Anti-dandruff efficacy: zone of inhibition by disc diffusion method. The format is cell-based. The arrangement: key: XX denotes No Activity.
Procedure: (§1) The anti-dandruff efficacy was determined by measuring zone of inhibition using disc diffusion method against Malassezia furfur (ATCC No. 14521). […] The culture plates were incubated at 37° C. for 48 hrs and antifungal activity was evaluated by observing an area of no growth around the disc. An area of no growth around the swatch is known as a zone of inhibition.
A short description of series [2]: Anti-leaching (biocide release rate) of paint formulations, ASTM-D-6903-07.
Procedure: The biocide (ZPTO) release rate in each test sample is calculated by the following formula: Biocide (ZPTO) release rate=(CZPTO*V*D)/(T*A) wherein, CZPTO=concentration of ZPTO in substitute ocean water (μgL^−1); V=substitute ocean water volume (L); D=hours per day; T=rotation period (hr); A=Area of paint (cm^2).
[3] abbreviates: combination: ZnP 0.25 w/w % + zinc salt 0.25 w/w %.
The mark [4] stands for this setting: zinc salt alone 0.25 w/w %, no ZnP.
Where [5] appears, read: zinc salt alone 0.50 w/w %, no ZnP.
[6] abbreviates: zinc salt alone 1.00 w/w %, no ZnP.
Setting [7] is: zinc salt alone 1.50 w/w %, no ZnP.
Where [8] appears, read: zinc salt alone 2.00 w/w %, no ZnP.
The mark [9] stands for this setting: combination: ZnP 0.25 w/w % + zinc salt 1.50 w/w %.
Where [10] appears, read: combination: ZnP 0.25 w/w % + zinc salt 0.50 w/w %.

Procedure for M. furfur: as §1
The SI is calculated based on F. C. […] SI=Qa/QA+Qb/QB Qa=the concentration of compound A in the blend; Qb=the concentration of compound B in the blend; QA=the concentration of compound A as the only biocide; QB=the concentration of compound B as the only biocide.
If SI (the Synergy Index) is greater than one, antagonism between the products is indicated. If the sum is equal to one, additivity is indicated. But when SI is less than one, synergism is shown, i.e. the lower the SI the greater the synergy shown.

In the case of `CC(O)C(=O)[O-].CC(O)C(=O)[O-].[Zn+2]` (centres unmarked) [Zn-Lac], the “Zone of Inhibition” value in series [1] (setting [3]) is given as 38 mm; in series [1] (setting [4]) it was “XX”; in series [1] (setting [5]) it was “XX”; in series [1] (setting [6]), “XX”; in series [1] (setting [7]) it was “XX”; in series [1] (setting [8]), “XX”.
As for `NCC(=O)[O-].NCC(=O)[O-].[Zn+2]` [Zn-Gly], the “Zone of Inhibition” value in series [1] (setting [3]) was 30 mm; in series [1] (setting [4]), “XX”; in series [1] (setting [5]), “XX”; in series [1] (setting [6]), “XX”; in series [1] (setting [7]) it was “XX”; in series [1] (setting [8]) it was “XX”.
As for `[O]=[Zn]` [ZnO, zinc oxide], the “Zone of Inhibition” value in series [1] (setting [3]) was 30 mm; in series [1] (setting [9]), 32 mm; in series [1] (setting [4]) it was “XX”; in series [1] (setting [5]), “XX”; in series [1] (setting [6]) it was “XX”; in series [1] (setting [7]) it was “XX”. Besides, in series [1] (setting [8]), the “Zone of Inhibition” value is listed as “XX”.
Zinc Nicotinate [Zn-Nic]: the “Zone of Inhibition” value in series [1] (setting [3]) was 40 mm; in series [1] (setting [10]), 40 mm; in series [1] (setting [9]) it was 38 mm; in series [1] (combination: ZnP 0.50 w/w % + zinc salt 1.50 w/w %), 48 mm; in series [1] (combination: ZnP 1.00 w/w % + zinc salt 0.25 w/w %), 32 mm; in series [1] (combination: ZnP 1.00 w/w % + zinc salt 0.50 w/w %) it was 48 mm. Further, the “Zone of Inhibition” value is “XX” in series [1] (setting [4]); “XX” in series [1] (setting [5]); “XX” in series [1] (setting [6]); “XX” in series [1] (setting [7]); 6 mm in series [1] (setting [8]). The “QB = the concentration of compound B as the only biocide (minimum inhibitory concentration)” value in the series with M. furfur (zinc nicotinate alone) was 35000 (QB).
Regarding Zinc pyrithione [ZPTO], the “Zone of Inhibition” value in series [1] (ZnP alone 0.25 w/w %), in series [1] (ZnP alone 0.50 w/w %), in series [1] (ZnP alone 1.00 w/w %), in series [1] (ZnP alone 1.50 w/w %) and in series [1] (ZnP alone 2.00 w/w %) was 30 mm each time. For the same molecule, the “QA = the concentration of compound A as the only biocide (minimum inhibitory concentration)” value with M. furfur (zinc pyrithione alone) was found to be 8. Also, in series [2] (ZPTO concentration in artificial marine water (substitute ocean water), paint formulation), the “ZPTO Conc (av.)” value is listed as 2145.6 μgL−1. In addition, the “Rate of Biocide Leaching (CZPTO * V*D)/(T*A)” value in series [2] (paint formulation in substitute ocean water) is 171.65 μgcm^2d^−1.
`O=C([O-])c1ccccn1.O=C([O-])c1ccccn1.[Zn+2]` [Zn-Pic]: the “Zone of Inhibition” value in series [1] (setting [3]) was 35 mm; in series [1] (setting [10]) it was 38 mm; in series [1] (setting [9]) it was 38 mm; in series [1] (setting [4]), “XX”; in series [1] (setting [5]), “XX”; in series [1] (setting [6]) it was “XX”. Moreover, the “Zone of Inhibition” value in series [1] (setting [7]) and in series [1] (setting [8]) was “XX” throughout.
